According to patent US20250312499A1, “KISSPEPTIN RECEPTOR (KISS1R) TARGETED THERAPEUTICS AND USES THEREOF” (priority 2024, published 2025):
Square brackets hold non-standard residues; d marks the D form. Peptide text beside a SMILES is read from it. * marks the point of attachment. DOTA = O=C(O)CN1CCN(CC(=O)O)CCN(CC(=O)*)CCN(CC(=O)O)CC1; Gly(N-(3-F-4-Me-benzyl)) = Cc1ccc(CNCC(=O)*)cc1F; Api(1-amidino) = N=C(N)N1CCC(N)(C(=O)O)CC1; Hydrocinnamoyl(4-Me) = Cc1ccc(CCC(=O)*)cc1; Hydrocinnamoyl(4-I) = O=C(CCc1ccc(I)cc1)*; X9 = O=C(CCOCCOCCOCCOCCOCCOCCOCCOCCO)*; dCya = N[C@H](CS(=O)(=O)O)C(=O)O; 4Pal = N[C@@H](Cc1ccncc1)C(=O)O; Cha = N[C@@H](CC1CCCCC1)C(=O)O; 4Amb = NCc1ccc(C(=O)O)cc1; Api = NC1(C(=O)O)CCNCC1; PEG2 = NCCOCCOCCC(=O)O; Ahx = NCCCCCC(=O)O; azaGly = NNC(=O)O

These compounds were tested against human kisspeptin receptor (Homo sapiens (Human), UniProt Q969F8) (assay: Human KISS1R binding assay (membrane competition binding)). Details: 90 min at room temperature; competition with 0.2 nM [125I]-metastin (45-54); Flp-In T-Rex 293 kisspeptin membranes; metal complexes nonradioactive Ga, In, Lu; read-out: hKiSSR Binding Ki (90 min).
Procedure, shortened: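 Membranes from tetracycline-induced (48 h) Flp-In T-Rex 293 cells expressing receptor, 5–10 μg, incubated 90 min at room temperature with 0.2 nM [125I]-metastin (45-54) and competitor (typically 0–10,000 nM) in Tris/Mg/Ca/EGTA/0.1% BSA, pH 7.4. Filtration, washing, counting; Ki by non-linear regression.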

Sequence of human kisspeptin receptor (Q969F8 whole entry): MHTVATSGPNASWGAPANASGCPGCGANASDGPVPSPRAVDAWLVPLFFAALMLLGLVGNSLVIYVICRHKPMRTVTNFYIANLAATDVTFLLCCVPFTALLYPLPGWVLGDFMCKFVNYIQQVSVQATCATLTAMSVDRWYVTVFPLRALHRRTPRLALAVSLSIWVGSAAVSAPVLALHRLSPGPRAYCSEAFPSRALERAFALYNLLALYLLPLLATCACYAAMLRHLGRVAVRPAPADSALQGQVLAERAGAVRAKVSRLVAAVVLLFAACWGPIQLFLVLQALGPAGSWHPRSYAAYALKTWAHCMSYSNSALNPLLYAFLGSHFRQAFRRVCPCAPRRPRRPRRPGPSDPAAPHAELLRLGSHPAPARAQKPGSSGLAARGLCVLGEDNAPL

Q: Which Ki does the source give for `Cc1ccc(CNCC(=O)N2CCC(NC(=O)[C@H](CC(C)C)NC(=O)NNC(=O)[C@H](Cc3ccccc3)NC(=O)[C@@H](NC(=O)[C@H](CC(N)=O)NC(=O)[C@@H](Cc3c[nH]c4ccccc34)NC(=O)[C@@H](Cc3ccc(O)cc3)NC(=O)CCCCCNC(=O)[C@@H](CS(=O)(=O)O)NC(=O)[C@@H](CS(=O)(=O)O)NC(=O)[C@@H](CS(=O)(=O)O)NC(=O)CN3CCN(CC(=O)O)CCN(CC(=O)O)CCN(CC(=O)O)CC3)[C@@H](C)O)(C(=O)N[C@@H](Cc3c[nH]c4ccccc34)C(N)=O)CC2)cc1F` [Compound 114] ({DOTA}-[dCya][dCya][dCya][Ahx][dY][dW]NTF[azaGly]L[Api](Gly(N-(3-F-4-Me-benzyl)))W-NH2) here?
A: The Ki was < 0.01 µM.

Q: With `Cc1ccc(CCC(=O)NCCOCCOCCC(=O)N[C@H](Cc2ccc(O)cc2)C(=O)N[C@@H](CCCCNC(=O)CN2CCN(CC(=O)O)CCN(CC(=O)O)CCN(CC(=O)O)CC2)C(=O)N[C@@H](CC(N)=O)C(=O)N[C@H](C(=O)N[C@@H](Cc2ccccc2)C(=O)NNC(=O)N[C@@H](CC(C)C)C(=O)NC2(C(=O)N[C@@H](Cc3ccccc3)C(N)=O)CCN(C(=N)N)CC2)[C@@H](C)O)cc1` [Compound 322] ({Hydrocinnamoyl(4-Me)-PEG2}-[dY]K(DOTA)NTF[azaGly]L[Api(1-amidino)]F-NH2) as the compound, how does the Ki read?
A: Its Ki is < 0.01 µM.

Q: With `CC(C)C[C@H](NC(=O)NNC(=O)[C@H](Cc1ccccc1)NC(=O)[C@@H](NC(=O)[C@H](CC(N)=O)NC(=O)[C@H](CCCCNC(=O)CN1CCN(CC(=O)O)CCN(CC(=O)O)CCN(CC(=O)O)CC1)NC(=O)[C@@H](Cc1ccc(O)cc1)NC(=O)CCOCCOCCNC(=O)CCc1ccc(I)cc1)[C@@H](C)O)C(=O)NC1(C(=O)N[C@@H](Cc2c[nH]c3ccccc23)C(N)=O)CCN(C(=N)N)CC1` [Compound 196] ({Hydrocinnamoyl(4-I)-PEG2}-[dY]K(DOTA)NTF[azaGly]L[Api(1-amidino)]W-NH2) as the compound, how does the Ki read?
A: The Ki was < 0.01 µM.

Q: With `CC(C)C[C@H](NC(=O)NNC(=O)[C@H](Cc1ccccc1)NC(=O)[C@@H](NC(=O)[C@H](CC(N)=O)NC(=O)c1ccc(CNC(=O)CN2CCN(CC(=O)O)CCN(CC(=O)O)CCN(CC(=O)O)CC2)cc1)[C@@H](C)O)C(=O)NC1(C(=O)N[C@@H](Cc2ccncc2)C(N)=O)CCN(C(=N)N)CC1` [Compound 272] ({DOTA-4Amb}-NTF[azaGly]L[Api(1-amidino)][4Pal]-NH2) as the compound, how does the Ki read?
A: Its Ki is < 0.01 µM.

Q: For `Cc1ccc(CNCC(=O)N2CCC(NC(=O)[C@H](CC(C)C)NC(=O)NNC(=O)[C@H](CC3CCCCC3)NC(=O)c3ccc(CNC(=O)CN4CCN(CC(=O)O)CCN(CC(=O)O)CCN(CC(=O)O)CC4)cc3)(C(=O)N[C@@H](Cc3c[nH]c4ccccc34)C(N)=O)CC2)cc1F` [Compound 261] ({DOTA-4Amb}-[Cha][azaGly]L[Api](Gly(N-(3-F-4-Me-benzyl)))W-NH2), which Ki is on record?
A: The Ki was < 0.01 µM.

Q: With `Cc1ccc(CNCC(=O)N2CCC(NC(=O)[C@H](CC(C)C)NC(=O)NNC(=O)[C@H](Cc3ccccc3)NC(=O)[C@@H](NC(=O)[C@H](CC(N)=O)NC(=O)[C@H](CCCCNC(=O)CN3CCN(CC(=O)O)CCN(CC(=O)O)CCN(CC(=O)O)CC3)NC(=O)CCOCCOCCOCCOCCOCCOCCOCCOCCO)[C@@H](C)O)(C(=O)N[C@@H](Cc3ccncc3)C(N)=O)CC2)cc1F` [Compound 256] (X9-K(DOTA)NTF[azaGly]L[Api](Gly(N-(3-F-4-Me-benzyl)))[4Pal]-NH2) as the compound, how does the Ki read?
A: The Ki was < 0.01 µM.
